Source: paper PMC7915724 (2021)

Tests used:
[1] = system: biotin-Py24 (VEGF i-motif) (DNA, i motif) GACCCCGCCCCCGGCCCGCCCCGG; test: SPR; conditions: 100 mM KCl, 20 mM MES pH 5.5, 0.05% Tween-20, 25 °C
[2] = system: biotin-Pu24 (VEGF G-quadruplex) (DNA, G4) CCGGGGCGGGCCGGGGGCGGGGTC; test: SPR; conditions: 100 mM KCl; 20 mM Tris-HCl pH 7.4, 25 °C; tested up to 50 μM
[3] = system: biotin-Hairpin (duplex DNA) (DNA, hairpin, HEG (hexaethylene glycol) linker between 10 and 11) TATAGCTATATATAGCTATA; test: SPR; conditions: 100 mM KCl; 20 mM Tris-HCl pH 7.4, 25 °C; tested up to 50 μM
[4] = system: biotin-Pu24 (VEGF G-quadruplex) (DNA, G4) CCGGGGCGGGCCGGGGGCGGGGTC; test: SPR; conditions: 100 mM KCl; 20 mM Tris-HCl pH 7.4, 25 °C; tested up to 50 μM; remark: listed apart in the source
[5] = system: biotin-Hairpin (duplex DNA) (DNA, hairpin, HEG linker between nucleotides 10 and 11 (joins the two TATAGCTATA halves)) TATAGCTATATATAGCTATA; test: SPR; conditions: 100 mM KCl; 20 mM Tris-HCl pH 7.4, 25 °C; tested up to 50 μM
[6] = system: Py24 (VEGF i-motif) (DNA, i motif) GACCCCGCCCCCGGCCCGCCCCGG; test: ITC; conditions: 100 mM KCl, 30 mM KH2PO4, 30 mM K2HPO4; 1× BPES (1 mM EDTA) pH 5.0, 30 °C; Py24 titrated into 3c; one-site fit
[7] = system: FPy24 (DNA, i motif) GACCCCGCCCCCGGCCCGCCCCGG; test: MST; conditions: 100 mM KCl (annealing buffer); 1 μM DNA; assay pH not stated
[8] = system: FPu24 (DNA, G4) CCGGGGCGGGCCGGGGGCGGGGTC; test: MST; conditions: 100 mM KCl (annealing buffer); 1 μM DNA; assay pH not stated
[9] = system: FHairpin (duplex DNA) (DNA, hairpin, HEG linker between nucleotides 10 and 11 (joins the two TATAGCTATA halves)) TATAGCTATATATAGCTATA; test: MST; conditions: 1 μM DNA; assay buffer not stated
[10] = system: FBCL2 (DNA, i motif) CAGCCCCGCTCCCGCCCCCTTCCTCCCGCGCCCGCCCCT; test: MST; conditions: 100 mM KCl (annealing buffer); 1 μM DNA; assay pH not stated
[11] = system: FKRAS (DNA, i motif) GCCCGGCCCCCGCTCCTCCCCCGCCGGCCCGGCCCGGCCCCCTCCTTCTCCCCG; test: MST; conditions: 100 mM KCl (annealing buffer); 1 μM DNA; assay pH not stated
[12] = system: Fc-kit (DNA, i motif) CCCCTCCCTCGCGCCCGCCCG; test: MST; conditions: 100 mM KCl (annealing buffer); 1 μM DNA; assay pH not stated
[13] = system: FPDGFR-β (DNA, i motif) GCGTCCACCCTCCCTGCCCCGCCGCCCCCCCTTCTCCCAGC; test: MST; conditions: 100 mM KCl (annealing buffer); 1 μM DNA; assay pH not stated
[14] = system: Py24 (VEGF i-motif) (DNA, i motif) GACCCCGCCCCCGGCCCGCCCCGG; test: TO displacement, fluorescence; conditions: 100 mM KCl (annealing buffer); 1 μM DNA, 2 μM thiazole orange displaced; assay pH not stated
[15] = system: Pu24 (VEGF G-quadruplex) (DNA, G4) CCGGGGCGGGCCGGGGGCGGGGTC; test: TO displacement, fluorescence; conditions: 100 mM KCl (annealing buffer); 1 μM DNA, 2 μM thiazole orange displaced; assay pH not stated
[16] = system: PDGFR-β (DNA, i motif) GCGTCCACCCTCCCTGCCCCGCCGCCCCCCCTTCTCCCAGC; test: TO displacement, fluorescence; conditions: 100 mM KCl (annealing buffer); 1 μM DNA, 2 μM thiazole orange displaced; b21 gives lower bound of range as 8.01
[17] = system: BCL2 (DNA, i motif) CAGCCCCGCTCCCGCCCCCTTCCTCCCGCGCCCGCCCCT; test: TO displacement, fluorescence; conditions: 100 mM KCl (annealing buffer); 1 μM DNA, 2 μM thiazole orange displaced; assay pH not stated
[18] = system: KRAS (DNA, i motif) GCCCGGCCCCCGCTCCTCCCCCGCCGGCCCGGCCCGGCCCCCTCCTTCTCCCCG; test: TO displacement, fluorescence; conditions: 100 mM KCl (annealing buffer); 1 μM DNA, 2 μM thiazole orange displaced; assay pH not stated
[19] = system: c-kit (DNA, i motif) CCCCTCCCTCGCGCCCGCCCG; test: TO displacement, fluorescence; conditions: 100 mM KCl (annealing buffer); 1 μM DNA, 2 μM thiazole orange displaced; assay pH not stated

Row | SMILES | KD ([1]; tested up to 50 μM) [µM] | KD [2] [µM] | KD [3] [µM] | KD [4] [µM] | KD [5] [µM] | KD [1] [µM] | other results
1 | CC1(C)CC[C@]2(C(=O)N3CCC(N4CCCCC4)CC3)CC[C@]3(C)C(=CC[C@@H]4[C@@]5(C)CC[C@H](O)C(C)(C)[C@@H]5CC[C@]43C)[C@@H]2C1 | > 50 | > 50 | > 50 | – | – | – | –
2 | CC1(C)CC[C@]2(C(=O)NCCCNCCNCCCN)CC[C@]3(C)C(=CC[C@@H]4[C@@]5(C)CC[C@H](O)C(C)(C)[C@@H]5CC[C@]43C)[C@@H]2C1 | – | – | – | > 50 | > 50 | – | KD ([1]; b20 prints 1.93): 1.95 µM; KD [6]: 1.13 µM; KD [7]: 1.14 µM; KD [8]: 47.9 µM; KD [9]: 91.4 µM; KD [10]: 95.1 µM; KD [11]: 37.8 µM; KD [12]: 43.3 µM; KD [13]: 14.4 µM; DC50 [14]: 3.19 µM; DC50 [15]: 8.29 µM; DC50 [16]: 8.08 µM; DC50 [17]: 16.1 µM; DC50 [18]: 13.1 µM; DC50 [19]: 14.7 µM
3 | CC1(C)CC[C@]2(C(=O)NCCNC(=O)/C=C/c3ccc(O)c(O)c3)CC[C@]3(C)C(=CC[C@@H]4[C@@]5(C)CC[C@H](O)C(C)(C)[C@@H]5CC[C@]43C)[C@@H]2C1 | – | – | – | > 50 | > 50 | 3.09 | –
4 | CC1(C)CC[C@]2(C(=O)NCc3cn(-c4ncccn4)nn3)CC[C@]3(C)C(=CC[C@@H]4[C@@]5(C)CC[C@H](O)C(C)(C)[C@@H]5CC[C@]43C)[C@@H]2C1 | – | > 50 | > 50 | – | – | 12.3 | –
5 | CCN(CC)CCNC(=O)C1=C[C@]2(C)[C@H]3CC=C4[C@@H]5CC(C)(C)CC[C@]5(C(=O)OC)CC[C@@]4(C)[C@]3(C)CC[C@H]2C(C)(C)C1=O | > 50 | > 50 | > 50 | – | – | – | –
6 | CCOC(=O)Cn1cc(CNC(=O)[C@]23CCC(C)(C)C[C@H]2C2=CC[C@@H]4[C@@]5(C)CC[C@H](O)C(C)(C)[C@@H]5CC[C@@]4(C)[C@]2(C)CC3)nn1 | > 50 | > 50 | > 50 | – | – | – | –
7 | COC(=O)[C@]12CCC(C)(C)C[C@H]1C1=CC[C@@H]3[C@@]4(C)C=C(C(=O)O)C(=O)C(C)(C)[C@@H]4CC[C@@]3(C)[C@]1(C)CC2 | > 50 | > 50 | > 50 | – | – | – | –
8 | COC(=O)[C@]12CCC(C)(C)C[C@H]1[C@H]1C(=O)C[C@@H]3[C@@](C)(CCC(=O)NCCCN(C)C)[C@H](C(C)(C)O)CC[C@@]3(C)[C@]1(C)CC2 | > 50 | > 50 | > 50 | – | – | – | –
9 | COc1ccc(C(=O)NCCNC(=O)[C@]23CCC(C)(C)C[C@H]2C2=CC[C@@H]4[C@@]5(C)CC[C@H](O)C(C)(C)[C@@H]5CC[C@@]4(C)[C@]2(C)CC3)c(OC)c1 | > 50 | > 50 | > 50 | – | – | – | –
10 | Cc1cn(CC(=O)NCCCNCCNCCCNC(=O)[C@]23CCC(C)(C)C[C@H]2C2=CC[C@@H]4[C@@]5(C)CC[C@H](O)C(C)(C)[C@@H]5CC[C@@]4(C)[C@]2(C)CC3)c(=O)[nH]c1=O | – | – | – | > 50 | > 50 | 5.01 | –
